This is an account of results in US9668985B2, “Pterosin derivative-containing therapeutic preparation for disease associated with cartilage loss, cartilage degeneration and/or cartilage thinning” (KYOTO UNIVERSITY, priority 2013, dated 2017).

In series [1] the target is SIK3 (Homo sapiens, UniProt Q9Y2K2). The series can be described thus: CRTC2 activity as a measure of SIK3 inhibitory activity. The class given is cell-based. The following applies: 150 μM. The protocol:
Comparative evaluation of pterosin derivatives was performed in terms of the inhibitory effect on SIK3 signaling. As a measure of the SIK3 inhibitory activity, the induced activity of the transcription coupling factor CRTC2 (which is also referred to as TORC2, serves as a coupling factor of the transcription factor CREB, and is an inhibition target of SIK3) was measured according to the method described in PCT/JP2012/063709.

Series [2] relates to embryonic mouse metatarsal bone. The series can be described thus: tissue culture of embryonic mouse metatarsal bone, safranin O, BrdU and Col10a1 staining. The class given is cell-based. The following applies: 300 μM, 7 days. As to the method: The metatarsal bone was isolated from a mouse embryo of E15.5, and tissue culture of the bone was performed in DMEM supplemented with 10% fetal calf serum. To the culture medium, 300 μM of the extracted pterosin B or the synthesized pterosin B was added, and the culture was further continued. Seven days later, the metatarsal bone was collected and its histological sections were prepared. At 8 hours before the collection of the metatarsal bone, BrdU was added to the culture medium. The histological sections of the metatarsal bone were stained with safranin O and immunostained with an anti-BrdU antibody. As a result, it was shown that, in the presence of the extracted pterosin B or the synthesized pterosin B, the safranin O-stained area and the BrdU-positive cell number were increased (FIGS. 2 and 3). Meanwhile, the number of hypertrophic chondrocytes was decreased in the presence of the extracted pterosin B or the synthesized pterosin B (FIG. 4).

The test system of series [3] is human chondrocytes. Put plainly: safranin O staining of pellet-cultured human primary chondrocytes. The series is classed as cell-based. The following applies: 300 μM, on and after 14 days (14 or 28 days). The protocol:
(§1) Chondrocytes collected from a person with medial compartmental idiopathic osteonecrosis under informed consent were cultured in DMEM (Dulbecco's Modified Eagle's Medium) supplemented with 10% fetal calf serum for 7 days (an image of a 3-day culture is shown in FIG. 5A), and then pelletized by centrifugation (FIG. 5A). The human chondrocyte pellet was cultured in DMEM supplemented with 10% fetal calf serum and 300 μM of the extracted pterosin B for 14 or 28 days. The cell pellet was collected and then stained with safranin O. As a result, it was shown that the staining intensity in the presence of the extracted pterosin B was increased on and after 14 days from the addition of the extracted pterosin B (FIG. 5B). In addition, the mRNA amounts of COL2A1, COL11A2, ACAN, SOX9, COL10A1 and COL1A1 relative to GAPDH in the cell pellet were measured by quantitative RT-PCR. As a result, the mRNA amounts of COL2A1, COL11A2, ACAN and SOX9 were increased by the addition of the […] pterosin B, while the mRNA amounts of COL10A1 and COL1A1 were decreased by the addition of the extracted pterosin B (FIG. 6). […] Therefore, pterosin B is considered to have the effect of promoting hyaline cartilage growth in humans as well.

Series [4] deals with articular cartilage on the medial femoral epicondyle. The series can be described thus: intra-articular administration into the knee of C57BL/6 mice, articular cartilage histology. The series is classed as in vivo, mouse. The following applies: 3 times a week, 4 weeks. An excerpt: After the administration was continued for 4 weeks, the knee joint was dissected and then stained with safranin O/fast green/iron hematoxylin.

The test system of series [5] is human chondrocytes. The series can be described thus: quantitative RT-PCR in pellet-cultured human primary chondrocytes. The series is classed as cell-based. To be noted: 300 μM, pellet culture 2 weeks. The protocol: as §1
For series [6], the system named is mouse primary chondrocytes. The series can be described thus: quantitative RT-PCR in pellet-cultured mouse primary chondrocytes. The class given is cell-based. The following applies: for mRNA amount of Col10a1 relative to Gapdh: cell pellet, 300 μM, 2 or 4 weeks after addition. As to the method: (§2) Primary chondrocytes obtained from the distal femoral epiphyseal cartilage and the proximal tibial epiphyseal cartilage of 1- to 5-day-old mice were pelletized by centrifugation, and to the cell pellet, the extracted pterosin B at a given concentration (0 μM (only DMSO as a vehicle), 100 μM, 200 μM or 300 μM) was added in DMEM supplemented with 10% fetal calf serum. […] In addition, the mRNA amounts of Col2a1, Col10a1 and Sik3 relative to Gapdh in the cell pellet were measured by quantitative RT-PCR. […] Col2a1 is a gene relevant to […], and Col10a1 is a gene indicative of hypertrophic differentiation of chondrocytes.
In the same manner as in Example 1, primary chondrocytes obtained from 1- to 5-day-old mice were pelletized, and to the cell pellet, a pterosin derivative (synthesized pterosin B or pterosin Z) at 300 μM was added in DMEM supplemented with 10% fetal calf serum. At 2 or 4 weeks after the addition, the cell pellet was collected and the mRNA amount of Col10a1 relative to Gapdh was measured by quantitative RT-PCR. As a result, it was shown that Col10a1 was decreased by the addition of pterosin Z as well as the addition of the synthesized pterosin B (FIG. 9).

For series [7], the system named is mouse primary chondrocytes. The series can be described thus: safranin O staining of pellet-cultured mouse primary chondrocytes. The class given is cell-based. The following applies: cell pellet, 100, 200 or 300 μM, 28 days after addition. As to the method: as §2
The mark [8] stands for this setting: cell pellet, 100, 200 or 300 μM, 28 days.

Molecules are shown by their SMILES. “Also recorded” adds a separate entry of the source.

Sequence of SIK3 (Q9Y2K2 whole entry, species assumed): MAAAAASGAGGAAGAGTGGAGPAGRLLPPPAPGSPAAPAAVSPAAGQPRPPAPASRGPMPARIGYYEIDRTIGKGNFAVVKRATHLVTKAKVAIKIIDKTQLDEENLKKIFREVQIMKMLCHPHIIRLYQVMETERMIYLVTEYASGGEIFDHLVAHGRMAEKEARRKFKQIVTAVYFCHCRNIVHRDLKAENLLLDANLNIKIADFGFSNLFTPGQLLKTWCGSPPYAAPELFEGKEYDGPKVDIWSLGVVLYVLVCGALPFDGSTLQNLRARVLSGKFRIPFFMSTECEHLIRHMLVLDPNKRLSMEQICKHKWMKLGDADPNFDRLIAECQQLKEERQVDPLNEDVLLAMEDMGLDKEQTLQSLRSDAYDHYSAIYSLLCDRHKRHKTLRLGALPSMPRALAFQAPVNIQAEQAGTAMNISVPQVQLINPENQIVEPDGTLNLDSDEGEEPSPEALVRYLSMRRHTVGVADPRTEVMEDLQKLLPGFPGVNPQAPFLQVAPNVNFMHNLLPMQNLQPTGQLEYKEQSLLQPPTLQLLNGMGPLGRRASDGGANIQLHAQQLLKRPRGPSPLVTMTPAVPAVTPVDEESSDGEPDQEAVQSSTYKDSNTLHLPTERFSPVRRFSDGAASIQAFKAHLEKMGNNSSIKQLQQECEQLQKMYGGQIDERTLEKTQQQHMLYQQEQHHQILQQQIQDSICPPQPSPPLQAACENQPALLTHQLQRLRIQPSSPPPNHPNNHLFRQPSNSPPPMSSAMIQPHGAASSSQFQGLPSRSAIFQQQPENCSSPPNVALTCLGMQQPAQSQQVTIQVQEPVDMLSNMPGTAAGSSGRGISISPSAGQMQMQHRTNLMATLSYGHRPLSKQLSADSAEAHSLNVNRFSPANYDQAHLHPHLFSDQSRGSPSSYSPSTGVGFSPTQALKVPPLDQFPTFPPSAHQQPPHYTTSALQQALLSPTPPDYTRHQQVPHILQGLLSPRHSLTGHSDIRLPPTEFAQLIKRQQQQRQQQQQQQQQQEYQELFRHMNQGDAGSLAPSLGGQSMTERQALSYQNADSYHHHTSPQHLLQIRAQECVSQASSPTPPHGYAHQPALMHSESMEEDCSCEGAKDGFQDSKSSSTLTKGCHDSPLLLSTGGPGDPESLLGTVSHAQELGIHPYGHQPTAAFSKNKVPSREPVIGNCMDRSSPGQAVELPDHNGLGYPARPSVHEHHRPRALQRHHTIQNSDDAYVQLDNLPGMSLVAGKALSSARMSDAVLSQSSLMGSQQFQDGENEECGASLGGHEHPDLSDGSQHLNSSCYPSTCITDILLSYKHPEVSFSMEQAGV

Take `COCCc1c(C)c(O)c2c(c1C)C(=O)C(C)(C)C2` [14-O-methyl-onitin, 14-O-methylonitin]: in series [1], the “SIK3 inhibitory activity (induced activity of CRTC2)” value (“SIK3 inhibitory activity” for short) was “highly active than pterosin B”.
Still for that read-out and setting: then `COCCc1c(C)cc2c(c1C)C(=O)C(OC)C2` (stereo not shown) [14-O-methyl-pterosin G, 14-O-methylpterosin G], with “highly active than pterosin B”; and `Cc1c(O)c2c(c(C)c1CCCl)C(=O)C(C)(C)C2` [14-chloro-onitin, 14-deoxy-14-chloroonitin], with “highly active than pterosin B”.
With `Cc1cc2c(c(C)c1CCO)C(=O)C(C)C2` (stereo not shown) [extracted pterosin B, pterosin B], in series [2], the “number of hypertrophic chondrocytes” value was “decreased” and the “safranin O-stained area” value was “increased”. In series [2] (BrdU 8 hours before collection), the BrdU-positive cell number entry is recorded as “increased”. Further, in series [3], the “safranin O staining intensity” value is “increased”. Also, the “Findings of medial femoral epicondyle” value in series [4] (300 μM into left knee articular cavity, one line per mouse (No. 4-7)) is recorded as “No apparent abnormalities; also recorded: Moderate osteoarthritis”. Further, the “Findings of medial femoral epicondyle” value in series [4] (900 μM into left knee articular cavity, one line per mouse (No. 8-11)) is listed as “No apparent abnormalities; also recorded: Moderate osteoarthritis”. Also, in series [5], the “mRNA amount of COL1A1 relative to GAPDH” value is given as “decreased” and the “mRNA amount of COL10A1 relative to GAPDH” value is on record as “decreased”. In series [6] (setting [8]), the “amount of Col2a1 mRNA relative to Gapdh” value is recorded as “increased with increasing concentration” and the “amount of Col10a1 mRNA relative to Gapdh” value was “decreased with increasing concentration”. Besides, in series [7], the “safranin O staining intensity” value is reported as “increased with increasing concentration”.
In the case of `Cc1c(O)c2c(c(C)c1CCO)C(=O)C(C)(C)C2` [onitin], in series [1], the “SIK3 inhibitory activity” value is reported as “highly active than pterosin B”.
Regarding `Cc1cc2c(c(C)c1CCO)C(=O)C(C)C2` (stereo not shown) [pterosin B], the “area of the articular cartilage on the medial femoral epicondyle” value in series [4] (300 μM or 900 μM intra-articular) was “increased with increasing concentration”. The “SIK3 inhibitory activity” value in series [1] is “slightly inhibit”.
On to `COCCc1c(C)cc2c(c1C)C(=O)C(C)(C)C2` [pterosin I], for which, in series [1], the “SIK3 inhibitory activity” value was “highly active than pterosin B”.
On to `Cc1cc2c(c(C)c1CCO)C(=O)C(C)(C)C2` [pterosin Z], for which the “mRNA amount of Col10a1 relative to Gapdh” value in series [6] is “decreased”. In series [1], the “SIK3 inhibitory activity” value was “highly active than pterosin B”.
As to `Cc1cc2c(c(C)c1CCO)C(=O)C(C)C2` (stereo not shown) [synthesized pterosin B, pterosin B], in series [5], the “mRNA amount of ACAN relative to GAPDH” value is “increased”, the “mRNA amount of COL2A1 relative to GAPDH” value was “increased”, the “mRNA amount of COL11A2 relative to GAPDH” value is given as “increased” and the “mRNA amount of SOX9 relative to GAPDH” value is given as “increased”. The “mRNA amount of Col10a1 relative to Gapdh” value in series [6] is “decreased”.
